Tests used:
Assay in all cases: relative viability (nuclei count vs DMSO), 5 days (fraction); higher = more cells survive
Linsitinib + Trametinib = compound: C[C@]1(O)C[C@@H](c2nc(-c3ccc4ccc(-c5ccccc5)nc4c3)c3c(N)nccn32)C1 [Linsitinib] + CC(=O)Nc1cccc(-n2c(=O)n(C3CC3)c(=O)c3c(Nc4ccc(I)cc4F)n(C)c(=O)c(C)c32)c1 [Trametinib] (partner 0.02 µM)
Outline: (§1)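 Relative viability was taken as the ratio of nuclei in treated wells to nuclei in vehicle wells. Lung cancer cell lines in 1536-well plates received compounds by pin tool one day after seeding, either one drug alone or a fixed anchor-drug dose plus five library-drug doses (not always all listed) in √10 steps. Nuclei were counted on 4× images after 5 days of treatment, and values are medians of duplicate plates.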

Ispinesib + Bortezomib = compound: Cc1ccc(C(=O)N(CCCN)[C@@H](c2nc3cc(Cl)ccc3c(=O)n2Cc2ccccc2)C(C)C)cc1 [Ispinesib] + CC(C)C[C@H](NC(=O)[C@H](Cc1ccccc1)NC(=O)c1cnccn1)B(O)O [Bortezomib] (partner 0.002 µM)
Outline: as §1

Linsitinib + OSI-027 = compound: C[C@]1(O)C[C@@H](c2nc(-c3ccc4ccc(-c5ccccc5)nc4c3)c3c(N)nccn32)C1 [Linsitinib] + COc1cccc2cc(-c3nc([C@H]4CC[C@H](C(=O)O)CC4)n4ncnc(N)c34)[nH]c12 [OSI-027] (partner 0.5 µM)
Outline: as §1

Ispinesib + Foretinib = compound: Cc1ccc(C(=O)N(CCCN)[C@@H](c2nc3cc(Cl)ccc3c(=O)n2Cc2ccccc2)C(C)C)cc1 [Ispinesib] + COc1cc2c(Oc3ccc(NC(=O)C4(C(=O)Nc5ccc(F)cc5)CC4)cc3F)ccnc2cc1OCCCN1CCOCC1 [Foretinib] (partner 0.25 µM)
Outline: as §1

Cell Line	relative viability (Linsitinib + Trametinib; first compound 0.01 µM)	relative viability (Linsitinib + Trametinib; first compound 0.03162 µM)	relative viability (Linsitinib + Trametinib; first compound 0.1 µM)	relative viability (Linsitinib + Trametinib; first compound 0.3162 µM)	relative viability (Linsitinib + Trametinib; first compound 1 µM)	relative viability (Ispinesib + Bortezomib; first compound 0.001 µM)	relative viability (Ispinesib + Bortezomib; first compound 0.003162 µM)	relative viability (Ispinesib + Bortezomib; first compound 0.01 µM)	relative viability (Ispinesib + Bortezomib; first compound 0.03162 µM)	relative viability (Ispinesib + Bortezomib; first compound 0.1 µM)	relative viability (Linsitinib + OSI-027; first compound 0.01 µM)	relative viability (Linsitinib + OSI-027; first compound 0.03162 µM)	relative viability (Linsitinib + OSI-027; first compound 0.1 µM)	relative viability (Linsitinib + OSI-027; first compound 1 µM)	relative viability (Ispinesib + Foretinib; first compound 0.001 µM)	relative viability (Ispinesib + Foretinib; first compound 0.003162 µM)	relative viability (Ispinesib + Foretinib; first compound 0.01 µM)	relative viability (Ispinesib + Foretinib; first compound 0.03162 µM)	relative viability (Ispinesib + Foretinib; first compound 0.1 µM)	relative viability (Linsitinib + OSI-027; first compound 0.3162 µM)
NCI-H838	0.464	0.498	0.435	0.333	0.369	0.745	0.9	0.991	0.674	0.23	0.323	0.42	0.312	0.189	1.07	1.14	1.16	1	0.555	
HCC-827	0.526	0.616	0.522		0.602	1.1	1.18	1.04	0.691	0.875	0.769	0.836	0.821	0.771	1.04	1.02	1.05	0.936	0.684	
SW 1573	0.671	0.576	0.646	0.385	0.412	1.07	1.05	1.42	0.929	0.304	0.772	0.524	0.502	0.282	0.978	0.893	0.907	1.1	0.32	0.393
NCI-H2023	0.487	0.6	0.479	0.206	0.293	1	1.02	0.713	0.144	0.147	0.425	0.215	0.358	0.12	0.966	0.755	0.807	0.457	0.168	0.212
EPLC-272H	0.245	0.25	0.296		0.26	0.869	1.13	0.935	0.655	0.163	0.262	0.296		0.257	0.793	0.657	0.659	0.322	0.23	
SK-LU-1	0.551	0.349	0.538	0.471	0.534	1.32	1.39	1.48	0.585	0.461	0.338		0.295	0.197	1.01	0.806	0.942	0.821	0.286	0.221
NCI-H2085	0.557	0.644	0.503	0.449	0.514	1.08	1.08	1.18	0.818	0.484	0.681	0.657	0.814	0.431	0.838	1.06	1.05	0.848	0.371	0.712
NCI-H2087	0.197	0.204	0.183	0.15	0.191	0.852	0.978	1.05	0.477	0.153	0.691	0.582	0.463	0.182	1.17	1.14	1.45	0.901	0.209	0.362

— the supplement of paper PMC10307832
